Data taken from patent US5599793A, “Antithromobotic agents” (Eli Lilly and Company, priority 1995, dated 1997).

Legend:
Assay type in all cases: biochemical
[1] = test system: Human plasma; assay: Human plasma anticoagulation, activated partial thromboplastin time (APTT); details: concentration required to double the APTT, linear extrapolation
[2] = test system: Human plasma; assay: Human plasma anticoagulation, thrombin time (TT); details: concentration required to double the thrombin time, linear extrapolation
[3] = target: T1, factor Xa (Homo sapiens, UniProt P00742); assay: Serine protease selectivity, chromogenic substrate (Kass), factor Xa; details: substrate N-Benzoyl-Ile-Glu-Gly-Arg-p-nitroanilide
T1 construct: Human factors X, Xa, IXa, XIa, and XIIa are purchased; purchased Enzyme Research Laboratories, South Bend, Ind

[4] = test system: Human plasma; assay: Human plasma anticoagulation, prothrombin time (PT); details: concentration required to double the PT, linear extrapolation
[5] = target: Human Thrombin (Homo sapiens, UniProt P00734); assay: Inhibition of amidase activity of thrombin (Kass); details: apparent association constant, mean over a range of concentrations

T1 sequence (P00742 235-488 limits assumed): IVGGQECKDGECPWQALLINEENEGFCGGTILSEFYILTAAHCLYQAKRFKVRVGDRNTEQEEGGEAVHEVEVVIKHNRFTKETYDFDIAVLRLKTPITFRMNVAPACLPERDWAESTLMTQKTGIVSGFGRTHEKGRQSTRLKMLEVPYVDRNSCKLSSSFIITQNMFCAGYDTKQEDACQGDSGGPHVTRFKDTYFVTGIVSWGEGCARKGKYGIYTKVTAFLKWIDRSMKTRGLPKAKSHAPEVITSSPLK
T1 sequence (P00742 41-179 partner limits assumed): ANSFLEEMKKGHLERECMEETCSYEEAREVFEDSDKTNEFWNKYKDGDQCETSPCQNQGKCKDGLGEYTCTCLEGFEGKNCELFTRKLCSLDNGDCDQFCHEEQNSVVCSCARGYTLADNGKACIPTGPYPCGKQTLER

With `C[C@H]1C[C@@H](C(=O)N[C@H](C=O)CCCNC(=N)N)N(C(=O)[C@H]2CCCCN2)C1.Cl.Cl` (relative stereo) [Example 1, D-homoprolyl-L-cis-4-methyl-prolyl-L-argininal dihydrochloride] the “2x Clotting time, APTT” value [1] was 510 ng/mL, the “2x Clotting time, TT” value [2] was 60 ng/mL and the “Enzyme Kass, Xa” value [3] was 1.4 L/mol × 10^6. For the same compound, the “2x Clotting time, PT” value [4] was 1,700 ng/mL and the “Enzyme Kass, Human Thrombin” value [5] was 220 L/mol × 10^6.
For `CC[C@H]1C[C@@H](C(=O)N[C@H](C=O)CCCNC(=N)N)N(C(=O)[C@H]2CCCCN2)C1.Cl.Cl` (relative stereo) [Example 2, D-homoprolyl-L-cis-4-ethyl-prolyl-L-argininal dihydrochloride], the “2x Clotting time, APTT” value [1] was 460 ng/mL, the “2x Clotting time, TT” value [2] was 51 ng/mL and the “Enzyme Kass, Xa” value [3] was 1.7 L/mol × 10^6. The “2x Clotting time, PT” value [4] was 1,500 ng/mL and the “Enzyme Kass, Human Thrombin” value [5] was 230 L/mol × 10^6.
In the case of `CCC[C@H]1C[C@@H](C(=O)N[C@H](C=O)CCCNC(=N)N)N(C(=O)[C@H]2CCCCN2)C1.Cl.Cl` (relative stereo) [Example 3, D-hPro-Pro(4-cis-n-propyl)-ArgH.2 HCl], the “2x Clotting time, APTT” value [1] is reported as 610 ng/mL, the “2x Clotting time, TT” value [2] is reported as 120 ng/mL and the “Enzyme Kass, Xa” value [3] is reported as 1.7 L/mol × 10^6. For the same compound, the “2x Clotting time, PT” value [4] was 2,900 ng/mL and the “Enzyme Kass, Human Thrombin” value [5] was 27 L/mol × 10^6.
`Cl.Cl.N=C(N)NCCC[C@@H](C=O)NC(=O)[C@@H]1C[C@H](Cc2ccccc2)CN1C(=O)[C@H]1CCCCN1` (relative stereo) [Example 5, D-hPro-Pro(4-cis-benzyl)-ArgH.2 HCl] was tested, and the “2x Clotting time, APTT” value [1] was 510 ng/mL, the “2x Clotting time, TT” value [2] was 80 ng/mL and the “Enzyme Kass, Xa” value [3] was 5.8 L/mol × 10^6. The “2x Clotting time, PT” value [4] was 1,600 ng/mL and the “Enzyme Kass, Human Thrombin” value [5] was 110 L/mol × 10^6.
For `Cl.Cl.N=C(N)NCCC[C@@H](C=O)NC(=O)[C@@H]1CC2CCCCC2N1C(=O)[C@H]1CCCCN1` (relative stereo) [Example 7, N-[(1-D-homoprolyl-cis-octahydro-1H-indol-2(S)-yl)carbonyl]-L-argininal dihydrochloride], the “2x Clotting time, APTT” value [1] was 450 ng/mL, the “2x Clotting time, TT” value [2] was 37 ng/mL and the “Enzyme Kass, Xa” value [3] was 1.6 L/mol × 10^6. The “2x Clotting time, PT” value [4] was 1,500 ng/mL and the “Enzyme Kass, Human Thrombin” value [5] was 340 L/mol × 10^6.
In the case of `Cl.Cl.N=C(N)NCCC[C@H](C=O)NC(=O)[C@@H]1C[C@H](Oc2ccccc2)CN1C(=O)[C@H]1CCCCN1` (relative stereo) [Example 8, D-homoprolyl-L-cis-4-phenoxy-L-prolyl-D-argininal dihydrochloride], the “2x Clotting time, APTT” value [1] is reported as 520 ng/mL, the “2x Clotting time, TT” value [2] is reported as 70 ng/mL and the “Enzyme Kass, Xa” value [3] is reported as 3.0 L/mol × 10^6. The “2x Clotting time, PT” value [4] was 1,900 ng/mL and the “Enzyme Kass, Human Thrombin” value [5] was 50 L/mol × 10^6.
For `Cl.Cl.Cl.N=C(N)NCCC[C@@H](C=O)NC(=O)[C@@H]1C[C@H](Oc2cccnc2)CN1C(=O)[C@H]1CCCCN1` (relative stereo) [Example 9, D-hPro-Pro(4-cis-(3-pyridyloxy))-ArgH.3 HCl], the “2x Clotting time, APTT” value [1] was 880 ng/mL, the “2x Clotting time, TT” value [2] was 50 ng/mL and the “Enzyme Kass, Xa” value [3] was 1.6 L/mol × 10^6. For the same compound, the “2x Clotting time, PT” value [4] was 3,100 ng/mL and the “Enzyme Kass, Human Thrombin” value [5] was 37 L/mol × 10^6.
In the case of `Cl.Cl.Cl.N=C(N)NCCC[C@@H](C=O)NC(=O)[C@@H]1C[C@H](Oc2ccc(N)cc2)CN1C(=O)[C@H]1CCCCN1` (relative stereo) [Example 11, D-hPro-Pro(4-cis-(4-NH2-phenoxy))-ArgH.3 HCl], the “2x Clotting time, APTT” value [1] is reported as 1,400 ng/mL, the “2x Clotting time, TT” value [2] is reported as 96 ng/mL and the “Enzyme Kass, Xa” value [3] is reported as 0.66 L/mol × 10^6. For the same compound, the “2x Clotting time, PT” value [4] was 5,900 ng/mL and the “Enzyme Kass, Human Thrombin” value [5] was 28 L/mol × 10^6.
In the case of `Cl.Cl.N=C(N)NCCC[C@@H](C=O)NC(=O)[C@@H]1C[C@H](Oc2ccccc2)CN1C(=O)C1NCCC2CCCCC21` (relative stereo) [Example 15, D-1-Piq-Pro(4-cis-phenoxy)-ArgH.2 HCl], the “2x Clotting time, APTT” value [1] is reported as 940 ng/mL, the “2x Clotting time, TT” value [2] is reported as 28 ng/mL and the “Enzyme Kass, Xa” value [3] is reported as 2.6 L/mol × 10^6. For the same compound, the “2x Clotting time, PT” value [4] was 1,600 ng/mL and the “Enzyme Kass, Human Thrombin” value [5] was 230 L/mol × 10^6.
With `CCS(=O)(=O)N[C@@H](C(=O)N1[C@H](C(=O)N[C@H](C=O)CCCNC(=N)N)C[C@@H]2CCCC[C@@H]21)c1ccccc1.Cl` (relative stereo) [Example 22, EtSO2 -D-Phg-cis-Ohi-ArgH.HCl] the “2x Clotting time, APTT” value [1] was 332 ng/mL, the “2x Clotting time, TT” value [2] was 9 ng/mL and the “Enzyme Kass, Xa” value [3] was 11.8 L/mol × 10^6. The “2x Clotting time, PT” value [4] was 1,208 ng/mL and the “Enzyme Kass, Human Thrombin” value [5] was 6,170 L/mol × 10^6.
`Cl.Cl.N=C(N)NCCCC(C=O)NC(=O)C1CC2CCCCC2N1C(=O)C1NCCC2CCCCC21` [Example 20, D-1-cis-Piq-cis-Ohi-ArgH.2 HCl] was tested, and the “2x Clotting time, APTT” value ([1]; HCl) was 627 ng/mL, the “2x Clotting time, TT” value ([2]; HCl) was 19 ng/mL and the “Enzyme Kass, Xa” value ([3]; HCl) was 0.75 L/mol × 10^6. For the same compound, the “2x Clotting time, PT” value ([4]; HCl) was 1,452 ng/mL and the “Enzyme Kass, Human Thrombin” value ([5]; HCl) was 1,630 L/mol × 10^6.
